Data reported in patent publication US20180099931A1 (AbbVie S.à.r.l., priority 2016, published 2018).
Read-outs that look alike come from different tables or passages of the source.

Molecular target: T1, F508delCFTR (Homo sapiens, UniProt P13569, DEL508-508)
T1 construct: expressed in transfected cells; host or cells: CFBE41o- human lung-derived epithelial cells (CFBE4lo-F508delCFTR-HRP), doxycycline-inducible
Assay: Cell Surface Expression-Horse Radish Peroxidase (CSE-HRP) Assay;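 on Maximum % activity (with co-corrector): co-corrector and positive control are both the same reference corrector at 2 µM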;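 on Maximum % activity (without co-corrector): percent of the 2 µM on-plate positive control corrector response above DMSO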
Assay type: cell-based
Settings: for Maximum % activity (with co-corrector): with co-corrector (2 μM); for Maximum % activity (with co-corrector) / Emax: maximum at any tested concentration, normalized to on-plate positive control; for Emax: without co-corrector, read-out: Maximum % activity (without co-corrector)

[1] = test compound without co-corrector, read-out: EC50 (without co-corrector)
[2] = with co-corrector (2 μM of 3-[(2R,4R)-4-({[1-(2,2-difluoro-1,3-benzodioxol-5-yl)cyclopropyl]carbonyl}amino)-7-methoxy-3,4-dihydro-2H-chromen-2-yl]benzoic acid), read-out: EC50 (with co-corrector)

T1 sequence (P13569 with tags, fused parts or gaps DEL508-508): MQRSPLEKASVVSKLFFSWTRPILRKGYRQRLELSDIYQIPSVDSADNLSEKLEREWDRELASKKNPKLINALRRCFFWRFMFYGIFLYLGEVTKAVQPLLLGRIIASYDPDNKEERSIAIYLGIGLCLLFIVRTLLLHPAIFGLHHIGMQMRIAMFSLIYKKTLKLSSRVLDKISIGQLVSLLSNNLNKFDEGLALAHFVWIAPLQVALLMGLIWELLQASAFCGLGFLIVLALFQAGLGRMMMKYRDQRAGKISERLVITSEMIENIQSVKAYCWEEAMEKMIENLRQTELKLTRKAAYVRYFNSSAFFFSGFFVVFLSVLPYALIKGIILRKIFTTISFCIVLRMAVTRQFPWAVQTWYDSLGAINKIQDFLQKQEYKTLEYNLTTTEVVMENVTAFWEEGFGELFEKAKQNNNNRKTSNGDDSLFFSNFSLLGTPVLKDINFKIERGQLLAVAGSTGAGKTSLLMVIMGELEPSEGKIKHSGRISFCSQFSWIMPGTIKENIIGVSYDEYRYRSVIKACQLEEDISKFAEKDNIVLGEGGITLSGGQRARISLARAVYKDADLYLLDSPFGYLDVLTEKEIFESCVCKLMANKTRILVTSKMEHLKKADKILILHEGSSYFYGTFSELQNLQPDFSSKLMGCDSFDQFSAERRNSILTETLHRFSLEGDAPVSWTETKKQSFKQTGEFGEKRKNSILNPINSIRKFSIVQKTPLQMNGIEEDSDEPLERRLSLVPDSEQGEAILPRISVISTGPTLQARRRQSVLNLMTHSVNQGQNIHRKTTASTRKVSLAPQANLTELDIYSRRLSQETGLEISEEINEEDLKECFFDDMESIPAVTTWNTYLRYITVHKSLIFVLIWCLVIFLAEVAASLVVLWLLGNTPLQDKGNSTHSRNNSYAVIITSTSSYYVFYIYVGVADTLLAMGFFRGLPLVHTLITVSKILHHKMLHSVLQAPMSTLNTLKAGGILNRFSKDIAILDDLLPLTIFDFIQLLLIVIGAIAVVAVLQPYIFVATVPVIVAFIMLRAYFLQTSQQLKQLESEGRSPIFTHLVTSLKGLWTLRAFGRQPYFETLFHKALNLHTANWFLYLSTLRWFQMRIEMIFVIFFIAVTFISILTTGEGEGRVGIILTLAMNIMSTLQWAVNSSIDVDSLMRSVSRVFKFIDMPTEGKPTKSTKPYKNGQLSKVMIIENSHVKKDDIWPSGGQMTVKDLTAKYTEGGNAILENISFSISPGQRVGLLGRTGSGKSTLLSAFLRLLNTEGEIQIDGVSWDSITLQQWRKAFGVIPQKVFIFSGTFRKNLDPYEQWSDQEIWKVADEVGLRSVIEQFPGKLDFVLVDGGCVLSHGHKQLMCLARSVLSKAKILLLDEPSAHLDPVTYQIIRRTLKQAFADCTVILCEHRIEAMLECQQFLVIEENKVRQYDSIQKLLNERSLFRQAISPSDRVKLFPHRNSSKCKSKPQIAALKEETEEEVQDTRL

| EC50 [1] | EC50 [2] | Maximum % activity (with co-corrector) | Emax | Structure (SMILES) |
| --- | --- | --- | --- | --- |
| 1000 to 10000 nM | < 1000 nM | +++ (≥350) | > 200% | COc1ccc(C(C)(C)C)cc1CN[C@H]1[C@H](C(C)(C)OC)[C@@H](C(=O)O)N(C(=O)C2CCCCC2)[C@H]1c1ccccc1 [Example I-61] |
| < 1000 nM | < 1000 nM | +++ (≥350) | 100 to 200% | COc1ccc(C(F)(F)F)cc1CN[C@H]1[C@H](C(C)(C)C)[C@@H](C(=O)O)N(C(=O)C2CCCCC2)[C@H]1c1ccccc1 [Example 9, (2S,3S,4S,5S)-3-tert-butyl-1-(cyclohexanecarbonyl)-4-({[2-methoxy-5-(trifluoromethyl)phenyl]methyl}amino)-5-phenylpyrrolidine-2-carboxylic acid] |
